Test results reported in US20110027809A1, “METHOD FOR EVALUATION OF DEGREE OF MALIGNANCY OF TUMOR CELL” (priority 2008, published 2011).

What was measured:
[1] = test system: MDA-MB-468 tumor; assay: Tumor mass of MDA-MB-468 tumor in mice; format: in vivo, mice (BALB/c nu/nu); settings: 30 mg/kg/day injected for 7 days, Days 3, 5, 8 relative to Day 1, FIG. 4
Method: MDA-MB-468 cells were cultured in a medium (DMEM-F12 (Sigma) containing 10% FBS (Hyclone)) until cells become 80% confluent in a 225-cm^2 flask. The obtained cultured cells were suspended in 100 μl of DMEM-F12 at about 1×10^7 cells to obtain a MDA-MB-468 cell suspension.
Fat pad of 10-week-old female mice (BALB/c nu/nu) was injected with 100 μl of the MDA-MB-468 cell suspension. After 14 days, the growth of tumor in mice was confirmed. Thus, tumor was allowed to be formed in three mice.
At 14 days after the injection of the MDA-MB-468 cell suspension, an inhibitor solution was injected to the mouse having tumor. Specifically, AG1478 was dissolved in 100 μl of dimethylsulfoxide (DMSO, Sigma) to obtain a inhibitor solution 1. The mouse was injected with the inhibitor solution 1 so that it received the inhibitor at a dose of 30 mg/kg/day. The inhibitor solution 1 was injected for consecutive 7 days. 4557W was dissolved in DMSO to obtain an inhibitor solution 2. […]
On Day 1, the mice were injected with the inhibitor solutions. On Days 1, 3, 5, and 8, the tumor mass (mm^3) in mice was measured. The tumor mass was calculated from the longitudinal and transverse diameters of the tumor measured, assuming that the shape of the tumor is an oval sphere.
The tumor mass of the mouse injected with DMSO was measured in a similar manner. […]

[2] = test system: RTKs in cell membrane fraction MDA-MB-468; assay: RTK activity of cell membrane fraction with or without inhibitor (ELISA, Biotin-poly(Glu, Tyr) substrate); format: biochemical; settings: treatment solution containing 100 μM inhibitor, 100 μM ATP, FIG. 1
Method: (§1) Cultured cells (13 types: A-431, KF, MDA-MB-468, RMUG-L, BT-474, ES2, MDA-MB-453, SK-Br-3, SNG-S, K-562, MDA-MB-231, MCF7 and T47D) were respectively mixed with 1 ml of a homogenizing reagent (containing 20 mM HEPES pH7.4, 0.2% protease inhibitors (PI), 10% glycerol, 200 μM Na3VO4 and 50 mM NaF), pressurized with a pestle to break cell membrane and cell homogenate was obtained. The obtained cell homogenate was centrifuged (20,000×g, 20 min.), the supernatant was discarded and the pellet was collected. The collected pellet was added with a solubilizing solution (containing 20 mM HEPES pH7.4, 1% NP40, 0.2% PI, 10% glycerol, 200 μM Na3VO4 and 50 mM NaF), mixed, pressurized with a pestle to solubilize cell membrane and centrifuged (20,000×g, 20 min.). The supernatant was then collected as the cell membrane fraction, adjusted its total protein amount to 40 μg/ml and used for the following experiments.
(§2) The ELISA plate used was the avidin coated plate (NeutrAvidin HBC White 96-Well Plates With SuperBlock Blocking Buffer; PIERCE). Each well of the plate was washed three times with TBS-T (containing 25 mM Tris, 150 mM NaCl and 0.05% Tween-20). A substrate solution 1 (50 μl; TBS containing 1 μg/ml Biotin-poly(Glu, Tyr) substrate) was added to each well and the plate was incubated with gentle shaking at 25° C. for 1.5 hours. After the incubation, each well was washed three times with TBS-T. Thus, Biotin-poly(Glu, Tyr) substrate was bound to the surface of each well of the ELISA plate. This ELISA plate was used for the following enzyme reaction.
(§3) The cell membrane fractions (25 μl each) of the above tumor cells were placed in seven tubes, respectively. To six tubes were added 25 μl of a treatment solution (20 mM HEPES pH7.4, 20 mM MnCl2, 2 mM DTT, 1% NP40, 10% glycerol, 200 μM Na3VO4, 50 mM NaF, 100 μM ATP, 400 μM PPI (BIOMOL)) containing 100 μM PD153035, 25 μl of treatment solution containing 100 μM AG1478, 25 μl of the treatment solution containing 100 μM 4557W, 25 μl of the treatment solution containing 100 μM Src inhibitor, 25 μl of the treatment solution containing 100 μM PDGFR inhibitor and 25 μl of the treatment solution containing 100 μM VEGFR inhibitor, respectively, to contact the cell membrane fractions with RTK activity inhibitors. To the remained tube was added with 25 μl of the treatment solution without inhibitors. The thus obtained solutions are called as reaction solutions. In order to suppress the enzyme activity of RTKs, the above procedures were carried out at below 4° C.
(§4) Each reaction solution (50 μl was distributed to each well of the ELISA plate prepared as above, and the plate was incubated at 25° C. for about 30 minutes to bring the cell membrane fractions having contacted or not with RTK activity inhibitors into contact with the substrate. After the incubation, each well was added with 100 μl of a reaction termination solution (TBS-T containing 5 mM EDTA) and washed three times with TBS-T. Each well was then washed with 300 μl of StartingBlock T20 (TBS) Blocking Buffer (PIERCE). After washing, each well was added with 100 μl of HRP-labeled primary antibody (p-Tyr (PY20), sc-508 HRP (SANTA Cruz Biotechnology), an antibody recognizing a phosphorylated tyrosine residue) diluted to 1000-fold with StartingBlock T20 (TBS) Blocking Buffer, and the plate was incubated with gentle shaking at 25° C. for about 1.5 hours. After the incubation, wells were washed for five times with TBS-T. After washing, each well was added with 150 μl of chemiluminescent substrate (SuperSignal ELISA PICO (PIERCE)), and after 5 min., luminescence was measured with a microplate reader GENios (TECAN) to measure RTK activities. […]

[3] = test system: RTKs in cell membrane fraction MCF7; assay: as above; format: biochemical; settings: treatment solution containing 100 μM inhibitor, 100 μM ATP, FIG. 2
Method: as §1, §2, §3, §4

[4] = test system: RTKs in cell membrane fraction MDA-MB-231; assay: as above; format: biochemical; settings: treatment solution containing 100 μM inhibitor, 100 μM ATP, FIG. 2
Method: as §1, §2, §3, §4

[5] = test system: RTKs in cell membrane fraction BT-474; assay: as above; format: biochemical; settings: treatment solution containing 100 μM inhibitor, 100 μM ATP, FIG. 1
Method: as §1, §2, §3, §4

[6] = test system: MDA-MB-468 cells; assay: VEGF secretion ability (Human VEGF Quantikine ELISA); format: cell-based; settings: 1 μM inhibitor, 4 hours, FIG. 6
Method: (§5) The VEGF secretion ability was measured as follows. Cultured cells of MDA-MB-468, BT-474, MCF7 and MDA-MB-231 were seeded in a 6-well plate (Corning) at 1×10^6 cells/well and cultured at 37° C. in a medium (10% FBS). After 24 hours, the medium is changed to a serum free medium and the culture was continued for further 18 hours. The serum free medium used was DMEM/F12 (SIGMA) or RPMI1640 (SIGMA) supplemented with the antibiotics Antibiotic-Antimycotic (100×) (GIBCO). Thereafter, the medium was changed to the medium (10% FBS) containing 1 μM inhibitor in DMSO (PD153035, AG1478, PDGFR inhibitor or VEGFR inhibitor) and the culture was continued for additional 4 hours. The cell supernatant was then collected. The amount of VEGFs in the supernatant was measured with Human VEGF Quantikine ELISA Kit (R&D system) according to the attached protocol.
(§6) The control experiment was carried out with DMSO only instead of the inhibitor.
(§7) In FIG. 6, the y-axis corresponds to VEGF concentration (pg/ml), which reflects the amount of VEGFs secreted from the cells. In FIG. 6, “DMSO”, “PD”, “AG”, “PDGFR” and “VEGFR” represent the results of control, and the cells treated with PD153035, AG1478, PDGFR inhibitor and VEGFR inhibitor, respectively.

[7] = test system: BT-474 cells; assay: as above; format: cell-based; settings: 1 μM inhibitor, 4 hours, FIG. 6
Method: as §5, §6, §7

[8] = test system: tumor cell line (A-431); settings: A-431, highest expression level of HER1; Non-Patent Document 1; cited from earlier work

COc1cc2ncnc(Nc3ccc(OCc4ccccc4)cc3)c2cc1OC [4557W]
increase in the tumor mass [1]: suppressed | RTK activity in the presence of the inhibitor (relative to control RTK activity) [2]: decreased

COc1cc2ncnc(Nc3cccc(Cl)c3)c2cc1OC [AG1478]
increase in the tumor mass [1]: suppressed | RTK activity in the presence of the inhibitor (relative to control RTK activity) [3]: not decreased | RTK activity in the presence of the inhibitor (relative to control RTK activity) [4]: not decreased | RTK activity in the presence of the inhibitor (relative to control RTK activity) [2]: decreased | RTK activity in the presence of the inhibitor (relative to control RTK activity) [5]: decreased | VEGF secretion amount compared to the control value [6]: decreased | VEGF secretion amount compared to the control value [7]: decreased

COc1cc2ncnc(Nc3ccc(F)c(Cl)c3)c2cc1OCCCN1CCOCC1 [Iressa, gefitinib]
proliferation of the tumor cell line [8]: suppressed at the highest degree

COc1cc2ncnc(Nc3cccc(Br)c3)c2cc1OC [PD153035]
RTK activity in the presence of the inhibitor (relative to control RTK activity) [3]: not decreased | RTK activity in the presence of the inhibitor (relative to control RTK activity) [4]: not decreased | RTK activity in the presence of the inhibitor (relative to control RTK activity) [2]: decreased | RTK activity in the presence of the inhibitor (relative to control RTK activity) [5]: decreased | VEGF secretion amount compared to the control value [6]: decreased | VEGF secretion amount compared to the control value [7]: decreased
